From article PMC10296720, “A Truncated 14-Amino-Acid Myelin Protein-Zero-Targeting Peptide for Fluorescence-Guided Nerve-Preserving Surgery” (Biomolecules, 2023)
In brackets after ≈: the same amount, converted by molar mass. Read-outs that look alike come from different tables or passages of the source. Where a SMILES comes first, the peptide text is derived from it. The star is where a group is joined. X1 = CC1(C)C(/C=C/C=C/C=C2/N(CCCCS(=O)(=O)O)c3ccc(S(=O)(=O)O)cc3C2(C)C)=[N+](CCCCCC(=O)NCCN2C(=O)CC(*)C2=O)c2ccc(S(=O)(=O)[O-])cc21; X2 = CC1(C)C(=CC=CC=CC2=[N+](CCCCS(=O)(=O)[O-])c3ccc(S(=O)(=O)O)cc3C2(C)C)N(CCCCCC(=O)NCCN2C(=O)CC(*)C2=O)c2ccc(S(=O)(=O)O)cc21

What was measured:
LogP = type: physicochemical; details: as previously described (refs 27, 31, 36)
Protocol: (§1) Determination of the chemical and photophysical properties (LogP, solubility, serum binding, net charge, and brightness) was performed as previously described.

Serum binding = type: in vitro ADME; details: as previously described (refs 27, 31, 36)
Protocol: as §1

Solubility = type: physicochemical; details: as previously described (refs 27, 31, 36)
Protocol: as §1

P0 = target: T1, P0 (Rattus norvegicus, UniProt P06907); test: P0 affinity (KD) via flow cytometry saturation binding; details: saturation binding on P0-expressing RT4 D6P2T Schwannoma cells, flow cytometry (APC-A), 0–2000 nM, triplicate, repeated at least two times per tracer
T1 construct: performed using P0-expressing RT4 D6P2T cells; host or cells: RT4 D6P2T myelinating Schwannoma cells
T1 sequence (P06907 30-248): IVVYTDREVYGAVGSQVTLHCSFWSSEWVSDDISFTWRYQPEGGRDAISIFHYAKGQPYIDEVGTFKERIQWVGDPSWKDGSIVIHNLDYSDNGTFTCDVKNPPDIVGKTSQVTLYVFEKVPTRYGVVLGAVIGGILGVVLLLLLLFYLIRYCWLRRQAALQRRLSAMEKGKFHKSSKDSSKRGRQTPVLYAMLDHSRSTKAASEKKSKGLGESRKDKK
Protocol: The mean fluorescence intensity values per sample were measured using an LSRII flow cytometer (BD Biosciences, Franklin Lakes, NJ, USA) with APC-A settings (635 nm laser and 750 nm long-pass filter) for a Cy5 dye. […] For the affinity assessment, fluorescence was measured using a FACSCanto II flow cytometry device (BD Biosciences, Franklin Lakes, NJ, USA) in the APC-A channel, and the accompanying FlowJo^TM v5 software (BD Biosciences, Franklin Lakes, NJ, USA) was used for further analysis.
Saturation binding experiments were performed for each of the fluorescent peptides in a concentration range of 0–2000 nM. All measurements were performed in triplicate, and experiments were repeated at least two times per tracer. The fluorescence was measured using a FACSCanto II flow cytometry device (BD Biosciences) in the APC-A channel, and the accompanying FlowJo software was used for further analysis. KD assessment was performed using the normalized geometric means, which were fitted with equations in GraphPad Prism 5 software.
A statistical evaluation to compare the affinity (KD) was performed using unpaired Student’s t-test. Values of p < 0.05 were considered significant.

Brightness (in HSA) = type: physicochemical, human
Protocol: as §1

LogP (LogP; read-out: LogP) | fraction unbound (Serum binding) | Solubility (Solubility) | Kd (P0) | LogP (LogP) | Solubility (Solubility; listed as Cy5P0_112–125) | Structure (SMILES) | increase in brightness versus lead Cy5-P0_101–125 (Brightness (in HSA); in HSA) | Brightness (in HSA) (Brightness (in HSA); in human serum albumin)
– | 0.31 | – | 83 nM | −1.34 + 0.03 | – | CC(=O)NCC(=O)N[C@@H](CCCCN)C(=O)N[C@H](C(=O)N[C@@H](CO)C(=O)N[C@@H](CCC(N)=O)C(=O)N[C@H](C(=O)N[C@H](C(=O)N[C@@H](CC(C)C)C(=O)N[C@@H](Cc1ccc(O)cc1)C(=O)N[C@H](C(=O)N[C@@H](Cc1ccccc1)C(=O)N[C@@H](CCC(=O)O)C(=O)N[C@@H](CCCCN)C(=O)N[C@H](C(=O)N1CCC[C@H]1C(=O)N[C@H](C(=O)N[C@@H](CCCNC(=N)N)C(=O)N[C@@H](Cc1ccc(O)cc1)C(=O)N[C@@H](CSC1CC(=O)N(CCNC(=O)CCCCC[N+]2=C(/C=C/C=C/C=C3/N(CCCCS(=O)(=O)O)c4ccc(S(=O)(=O)O)cc4C3(C)C)C(C)(C)c3cc(S(=O)(=O)[O-])ccc32)C1=O)C(N)=O)[C@@H](C)O)C(C)C)C(C)C)[C@@H](C)O)C(C)C)[C@@H](C)O (some centres unmarked) [Cy5-P0_108–125] (Ac-GKTSQVTLYVFEKVPTRYC(X1)-NH2) | – | –
– | – | 71 µM (≈ 197 µg/mL) | 69 nM | −1.08 + 0.03 | relatively low solubility | CC(=O)N[C@@H](CCC(N)=O)C(=O)N[C@H](C(=O)N[C@H](C(=O)N[C@@H](CC(C)C)C(=O)N[C@@H](Cc1ccc(O)cc1)C(=O)N[C@H](C(=O)N[C@@H](Cc1ccccc1)C(=O)N[C@@H](CCC(=O)O)C(=O)N[C@@H](CCCCN)C(=O)N[C@H](C(=O)N1CCC[C@H]1C(=O)N[C@H](C(=O)N[C@@H](CCCNC(=N)N)C(=O)N[C@@H](Cc1ccc(O)cc1)C(=O)N[C@@H](CSC1CC(=O)N(CCNC(=O)CCCCC[N+]2=C(/C=C/C=C/C=C3/N(CCCCS(=O)(=O)O)c4ccc(S(=O)(=O)O)cc4C3(C)C)C(C)(C)c3cc(S(=O)(=O)[O-])ccc32)C1=O)C(N)=O)[C@@H](C)O)C(C)C)C(C)C)[C@@H](C)O)C(C)C (some centres unmarked) [Cy5-P0_112–125] (Ac-QVTLYVFEKVPTRYC(X1)-NH2) | – | –
– | – | 150 µM (≈ 350 µg/mL) | 147 ± 80 nM | −1.58 + 0.03 | – | CC(=O)N[C@@H](Cc1ccc(O)cc1)C(=O)N[C@H](C(=O)N[C@@H](Cc1ccccc1)C(=O)N[C@@H](CCC(=O)O)C(=O)N[C@@H](CCCCN)C(=O)N[C@H](C(=O)N1CCC[C@H]1C(=O)N[C@H](C(=O)N[C@@H](CCCNC(=N)N)C(=O)N[C@@H](Cc1ccc(O)cc1)C(=O)N[C@@H](CSC1CC(=O)N(CCNC(=O)CCCCC[N+]2=C(/C=C/C=C/C=C3/N(CCCCS(=O)(=O)O)c4ccc(S(=O)(=O)O)cc4C3(C)C)C(C)(C)c3cc(S(=O)(=O)[O-])ccc32)C1=O)C(N)=O)[C@@H](C)O)C(C)C)C(C)C (some centres unmarked) [Cy5-P0_116–125] (Ac-YVFEKVPTRYC(X1)-NH2) | – | –
– | 0.29 | 150 µM (≈ 269 µg/mL) | – | −1.59 + 0.01 | – | CC(=O)N[C@@H](CCCCN)C(=O)N[C@H](C(=O)N1CCC[C@H]1C(=O)N[C@H](C(=O)N[C@@H](CCCNC(=N)N)C(=O)N[C@@H](Cc1ccc(O)cc1)C(=O)N[C@@H](CSC1CC(=O)N(CCNC(=O)CCCCC[N+]2=C(/C=C/C=C/C=C3/N(CCCCS(=O)(=O)O)c4ccc(S(=O)(=O)O)cc4C3(C)C)C(C)(C)c3cc(S(=O)(=O)[O-])ccc32)C1=O)C(N)=O)[C@@H](C)O)C(C)C (some centres unmarked) [Cy5-P0_120–125] (Ac-KVPTRYC(X1)-NH2) | – | –

Continued, compound first:

Structure (SMILES) | LogP (LogP; read-out: LogP) | fraction unbound (Serum binding) | Solubility (Solubility) | Kd (P0) | LogP (LogP) | Solubility (Solubility; listed as Cy5P0_112–125) | increase in brightness versus lead Cy5-P0_101–125 (Brightness (in HSA); in HSA) | Brightness (in HSA) (Brightness (in HSA); in human serum albumin)
CC[C@H](C)[C@H](NC(=O)[C@H](CC(=O)O)NC(=O)[C@@H]1CCCN1C(=O)[C@@H]1CCCN1C(=O)[C@H](CC(N)=O)NC(=O)[C@H](CCCCN)NC(C)=O)C(=O)N[C@@H](CSC1CC(=O)N(CCNC(=O)CCCCC[N+]2=C(/C=C/C=C/C=C3/N(CCCCS(=O)(=O)O)c4ccc(S(=O)(=O)O)cc4C3(C)C)C(C)(C)c3cc(S(=O)(=O)[O-])ccc32)C1=O)C(N)=O (some centres unmarked) [Cy5-P0_101–106] (Ac-KNPPDIC(X1)-NH2) | -0.95 ± 0.05 | 0.53 | >400 µM | – | – | – | – | –
CC[C@H](C)[C@H](NC(=O)[C@H](CC(=O)O)NC(=O)[C@@H]1CCCN1C(=O)[C@@H]1CCCN1C(=O)[C@H](CC(N)=O)NC(=O)[C@H](CCCCN)NC(C)=O)C(=O)N[C@H](C(=O)NCC(=O)N[C@@H](CCCCN)C(=O)N[C@H](C(=O)N[C@@H](CSC1CC(=O)N(CCNC(=O)CCCCC[N+]2=C(/C=C/C=C/C=C3/N(CCCCS(=O)(=O)O)c4ccc(S(=O)(=O)O)cc4C3(C)C)C(C)(C)c3cc(S(=O)(=O)[O-])ccc32)C1=O)C(N)=O)[C@@H](C)O)C(C)C (some centres unmarked) [Cy5-P0_101–110] (Ac-KNPPDIVGKTC(X1)-NH2) | -0.73 ± 0.12 | 0.45 | >400 µM | > 1000 nM | – | – | – | –
CC[C@H](C)[C@H](NC(=O)[C@H](CC(=O)O)NC(=O)[C@@H]1CCCN1C(=O)[C@@H]1CCCN1C(=O)[C@H](CC(N)=O)NC(=O)[C@H](CCCCN)NC(C)=O)C(=O)N[C@H](C(=O)NCC(=O)N[C@@H](CCCCN)C(=O)N[C@H](C(=O)N[C@@H](CO)C(=O)N[C@@H](CCC(N)=O)C(=O)N[C@H](C(=O)N[C@H](C(=O)N[C@@H](CC(C)C)C(=O)N[C@@H](CSC1CC(=O)N(CCNC(=O)CCCCC[N+]2=C(/C=C/C=C/C=C3/N(CCCCS(=O)(=O)O)c4ccc(S(=O)(=O)O)cc4C3(C)C)C(C)(C)c3cc(S(=O)(=O)[O-])ccc32)C1=O)C(N)=O)[C@@H](C)O)C(C)C)[C@@H](C)O)C(C)C (some centres unmarked) [Cy5-P0_101–115] (Ac-KNPPDIVGKTSQVTLC(X1)-NH2) | -0.8 ± 0.16 | 0.4 | >400 µM | > 1000 nM | – | – | – | –
CC[C@H](C)[C@H](NC(=O)[C@H](CC(=O)O)NC(=O)[C@@H]1CCCN1C(=O)[C@@H]1CCCN1C(=O)[C@H](CC(N)=O)NC(=O)[C@H](CCCCN)NC(C)=O)C(=O)N[C@H](C(=O)NCC(=O)N[C@@H](CCCCN)C(=O)N[C@H](C(=O)N[C@@H](CO)C(=O)N[C@@H](CCC(N)=O)C(=O)N[C@H](C(=O)N[C@H](C(=O)N[C@@H](CC(C)C)C(=O)N[C@@H](Cc1ccc(O)cc1)C(=O)N[C@H](C(=O)N[C@@H](Cc1ccccc1)C(=O)N[C@@H](CCC(=O)O)C(=O)N[C@@H](CCCCN)C(=O)N[C@@H](CSC1CC(=O)N(CCNC(=O)CCCCCN2C(=CC=CC=CC3=[N+](CCCCS(=O)(=O)[O-])c4ccc(S(=O)(=O)O)cc4C3(C)C)C(C)(C)c3cc(S(=O)(=O)O)ccc32)C1=O)C(N)=O)C(C)C)[C@@H](C)O)C(C)C)[C@@H](C)O)C(C)C (some centres unmarked) [Cy5-P0_101–120] (Ac-KNPPDIVGKTSQVTLYVFEKC(X2)-NH2; N-terminus and C-terminus assumed) | -0.99 ± 0.1 | 0.34 | 15 µM (≈ 49.4 µg/mL) | – | – | – | twofold increase in brightness | 137,940
